Assay results taken from EP3067058A1, “BIOLOGICAL COMPOSITION BASED ON ENGINEERED LACTOBACILLUS PARACASEI SUBSP. PARACASEI F19 FOR THE BIOSYNTHESIS OF CANNABINOIDS” (Farmagens Health Care Srl, priority 2015, dated 2016).

Legend:
[1] = system: Caco-2 cells; test: MTT proliferation assay in human colon carcinoma cells; type: cell-based; settings: 96 hrs incubation; 10^11 cfu; caproic acid 0.003-0.3µg/ml
Description: To confirm the chemo-preventive action of cannabidiol in the experimental conditions, a study on the putative pro-apoptotic and anticancer activity exerted by LP OAC-CAS-OLS-CsPT1+ probiotic was tested in vitro in human colon carcinoma cells. CBD release in human colon carcinoma cell line was measured at the different time points.
Caco-2 cell colture. Caco-2 cells were cultured in Dulbecco's Modified Eagle's Medium (DMEM) supplemented with 5% Foetal Bovine Serum (FBS), 2 mM glutamine, 100 U/mL penicillin, 100 µg/mL streptomycin at 37 °C in 5% CO2/95% air. At confluence cells were washed three times with Phosphate Buffer Saline (PBS), detached with tripsyn/EDTA, plated in 10 cm diameter Petri dishes and left to adhere for 24 hrs. […]
MTT Proliferation and survival assays. Cell proliferation was evaluated by 3-[4,5-dimethylthiazol-2-yl]-2,5 diphenyltetrazolium bromide (MTT) assay. […] After this time point, the cells were lysed and the dark blue crystals solubilized with 125 µl of a solution containing 50% (N,N-dimethylformamide, 20% (w/v) sodium dodecylsulphate (pH 4.5). The optical density (OD) of each well was measured with a Perkin-Elmer (Waltham, MA, USA) microplate spectrophotometer equipped with a 620 nm filter. Cell viability in response to pentamidine was calculated as % cell viability (OD treated/OC control) X 100.

[2] = system: Bax; test: Immunoblot of pro-apoptotic Bax protein in Caco-2 cells; type: cell-based, human; settings: 96 hrs incubation; 10^11 cfu; caproic acid 0.003-0.3µg/ml
Description: Caco-2 cell colture. Caco-2 cells were cultured in Dulbecco's Modified Eagle's Medium (DMEM) supplemented with 5% Foetal Bovine Serum (FBS), 2 mM glutamine, 100 U/mL penicillin, 100 µg/mL streptomycin at 37 °C in 5% CO2/95% air. At confluence cells were washed three times with Phosphate Buffer Saline (PBS), detached with tripsyn/EDTA, plated in 10 cm diameter Petri dishes and left to adhere for 24 hrs. Thereafter, DMEM was replaced with fresh medium and cells were treated for 96 hrs with 10^11 cfu LP OAC-CAS-OLS-CsPT1^+, with caproic acid 0.003-0.3µg/ml or LP empty vector with caproic acid 0.003-0.3µg/ml.
The pro-apoptotic effect in Caco-2 cell cultured in the presence of LP OAC-CAS-OLS-CsPT1+ or LP empty vector was tested by immunoblot analysis of pro-apoptotic proteins level (Bax), as well as by rate of cells proliferation (MTT).
Immunoblot of Bax protein. Briefly, after homogenization in ice-cold hypotonic lysis buffer, protein concentration was determined using Bio-Rad protein assay kit (Bio-Rad, Milan, Italy). Analysis of Bax and β-actin protein expression was performed on total protein fractions of homogenates. Equivalent amounts (30 µg) of each homogenate underwent electrophoresis through a polyacrilamide minigel. […] Protein bands were then scanned and densitometrically analyzed with a GS-700 imaging densitometer.

[3] = smoking; cited from earlier work

Row | Structure (SMILES) | cell proliferation (MTT) [1] | expression level of the pro-apoptotic protein Bax-2 [2] | Δ^9-THC content in a cannabis cigarette that is absorbed [3]
1 | CCCCCC(=O)O [caproic acid] | no significant effect | no significant effect | –
2 | CCCCCc1cc(O)c2c(c1)OC(C)(C)[C@@H]1CCC(C)=C[C@@H]21 [Δ^9-THC, (-)-trans-Δ9-tetrahydrocannabinol] | – | – | about 20%
